Type in all cases: biochemical
In experiment [1] the target is T1, TRB2(h) (Homo sapiens, UniProt Q92519).
T1 construct: purchased Eurofins (KinaseProfiler)
T1 sequence (Q92519 1-343): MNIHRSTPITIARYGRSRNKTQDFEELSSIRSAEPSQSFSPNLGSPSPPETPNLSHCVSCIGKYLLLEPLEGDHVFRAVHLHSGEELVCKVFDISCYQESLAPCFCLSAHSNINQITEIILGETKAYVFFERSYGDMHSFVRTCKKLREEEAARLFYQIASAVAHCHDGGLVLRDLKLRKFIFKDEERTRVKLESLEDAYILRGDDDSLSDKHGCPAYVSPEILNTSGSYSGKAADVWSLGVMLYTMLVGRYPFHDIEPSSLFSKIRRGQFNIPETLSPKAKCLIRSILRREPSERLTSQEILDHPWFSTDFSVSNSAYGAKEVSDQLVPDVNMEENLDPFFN
Briefly: radiometric kinase assay (KinaseProfiler, Eurofins), TRB2. Conditions: in vitro radiometric kinase assay, tested at 1 nM to 10 000 nM, no pre-incubation; read-out: inhibitory activities (IC50 values) TRB2.

Experiment [2] deals with T2, PIM1 (h) (Homo sapiens, UniProt P11309).
T2 construct: purchased Eurofins (KinaseProfiler)
The experiment can be described thus: radiometric kinase assay (KinaseProfiler, Eurofins), PIM1. As to conditions: in vitro radiometric kinase assay, tested at 1 nM to 10 000 nM, no pre-incubation; read-out: inhibitory activities (IC50 values) PIM1. The method in brief:
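Human PIM1 in 8 mM MOPS pH 7.0, 0.2 mM EDTA, 10 mM magnesium acetate, 100 µM KKRNRTLTV and γ-33P-ATP; started with Mg/ATP without compound preincubation, 40 min at room temperature. Filter-bound 33P counted; remaining activity versus DMSO at 1–10 000 nM gave IC50.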

Experiment [3] deals with T3, TAF1L(h) (Homo sapiens, UniProt Q8IZX4).
T3 construct: purchased Eurofins (KinaseProfiler)
Briefly: radiometric kinase assay (KinaseProfiler, Eurofins), TAF1L. Conditions: in vitro radiometric kinase assay, tested at 1 nM to 10 000 nM, no pre-incubation; read-out: inhibitory activities (IC50 values) TAF1L.

For experiment [4], the target named is T4, CLK2 (h) (Homo sapiens, UniProt P49760).
T4 construct: purchased Eurofins (KinaseProfiler)
The experiment can be described thus: radiometric kinase assay (KinaseProfiler, Eurofins), CLK2. As to conditions: in vitro radiometric kinase assay, tested at 1 nM to 10 000 nM, no pre-incubation; read-out: inhibitory activities (IC50 values) CLK2. The method in brief:
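Radiometric filter-binding assay: human CLK2 in 8 mM MOPS pH 7.0 with 20 µM peptide substrate, 10 mM Mg acetate and γ-33P-ATP, no compound preincubation; 40 min at room temperature. Activity relative to DMSO over 1–10 000 nM compound; IC50 by curve fit.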

T2 sequence (P11309 whole entry): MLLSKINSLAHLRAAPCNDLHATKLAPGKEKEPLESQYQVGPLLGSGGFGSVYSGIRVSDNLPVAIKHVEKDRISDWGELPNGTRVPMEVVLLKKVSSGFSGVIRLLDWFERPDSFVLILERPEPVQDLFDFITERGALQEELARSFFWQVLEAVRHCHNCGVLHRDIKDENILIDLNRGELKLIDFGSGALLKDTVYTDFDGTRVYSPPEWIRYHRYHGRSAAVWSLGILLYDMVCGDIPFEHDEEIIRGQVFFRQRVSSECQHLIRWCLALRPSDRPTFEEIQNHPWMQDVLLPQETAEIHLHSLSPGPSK
T3 sequence (Q8IZX4 whole entry): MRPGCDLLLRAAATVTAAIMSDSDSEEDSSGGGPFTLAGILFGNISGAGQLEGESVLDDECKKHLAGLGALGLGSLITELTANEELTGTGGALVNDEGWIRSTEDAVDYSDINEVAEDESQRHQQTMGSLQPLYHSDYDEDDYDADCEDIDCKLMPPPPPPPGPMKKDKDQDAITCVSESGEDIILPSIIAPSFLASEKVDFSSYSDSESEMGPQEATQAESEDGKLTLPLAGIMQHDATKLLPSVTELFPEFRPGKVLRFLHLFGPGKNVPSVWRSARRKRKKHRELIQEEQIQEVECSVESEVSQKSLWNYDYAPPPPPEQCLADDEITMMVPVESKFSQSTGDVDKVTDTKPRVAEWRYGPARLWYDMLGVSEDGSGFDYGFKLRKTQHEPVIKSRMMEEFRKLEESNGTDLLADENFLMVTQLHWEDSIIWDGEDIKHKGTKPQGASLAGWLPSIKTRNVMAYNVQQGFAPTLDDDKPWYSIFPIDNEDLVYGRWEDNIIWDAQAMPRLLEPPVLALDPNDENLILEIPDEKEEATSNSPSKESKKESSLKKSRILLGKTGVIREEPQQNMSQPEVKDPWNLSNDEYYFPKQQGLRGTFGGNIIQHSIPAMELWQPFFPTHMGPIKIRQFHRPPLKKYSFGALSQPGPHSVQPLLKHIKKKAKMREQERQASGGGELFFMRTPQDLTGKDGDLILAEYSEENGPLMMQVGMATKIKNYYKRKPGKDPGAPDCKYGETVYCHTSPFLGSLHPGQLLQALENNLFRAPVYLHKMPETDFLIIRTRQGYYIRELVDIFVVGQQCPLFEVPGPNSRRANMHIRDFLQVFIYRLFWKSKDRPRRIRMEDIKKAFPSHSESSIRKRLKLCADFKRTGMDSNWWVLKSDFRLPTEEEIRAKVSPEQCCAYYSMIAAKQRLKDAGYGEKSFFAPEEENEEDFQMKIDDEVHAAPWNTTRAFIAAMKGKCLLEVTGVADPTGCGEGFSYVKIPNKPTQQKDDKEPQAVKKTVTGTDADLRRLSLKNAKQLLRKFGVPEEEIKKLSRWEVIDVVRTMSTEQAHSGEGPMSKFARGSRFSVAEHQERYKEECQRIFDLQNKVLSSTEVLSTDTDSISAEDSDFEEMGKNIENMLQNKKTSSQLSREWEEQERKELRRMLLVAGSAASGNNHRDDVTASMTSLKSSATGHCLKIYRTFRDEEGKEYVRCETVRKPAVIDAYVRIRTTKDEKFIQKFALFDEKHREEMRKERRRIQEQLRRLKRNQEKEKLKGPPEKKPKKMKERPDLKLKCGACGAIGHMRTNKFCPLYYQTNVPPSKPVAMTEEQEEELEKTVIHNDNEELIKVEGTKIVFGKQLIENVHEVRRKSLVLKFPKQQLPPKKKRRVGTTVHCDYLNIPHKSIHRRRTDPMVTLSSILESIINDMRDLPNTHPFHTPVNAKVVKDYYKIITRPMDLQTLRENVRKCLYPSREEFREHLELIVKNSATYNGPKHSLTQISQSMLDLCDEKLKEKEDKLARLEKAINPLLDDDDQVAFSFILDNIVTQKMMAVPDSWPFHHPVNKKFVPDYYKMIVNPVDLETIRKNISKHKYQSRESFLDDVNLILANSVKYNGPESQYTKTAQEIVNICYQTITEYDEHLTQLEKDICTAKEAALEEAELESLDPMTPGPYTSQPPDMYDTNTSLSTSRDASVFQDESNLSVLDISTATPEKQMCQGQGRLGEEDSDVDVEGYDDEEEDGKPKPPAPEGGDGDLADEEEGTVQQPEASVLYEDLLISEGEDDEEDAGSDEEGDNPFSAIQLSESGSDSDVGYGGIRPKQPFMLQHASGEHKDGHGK
T4 sequence (P49760 whole entry): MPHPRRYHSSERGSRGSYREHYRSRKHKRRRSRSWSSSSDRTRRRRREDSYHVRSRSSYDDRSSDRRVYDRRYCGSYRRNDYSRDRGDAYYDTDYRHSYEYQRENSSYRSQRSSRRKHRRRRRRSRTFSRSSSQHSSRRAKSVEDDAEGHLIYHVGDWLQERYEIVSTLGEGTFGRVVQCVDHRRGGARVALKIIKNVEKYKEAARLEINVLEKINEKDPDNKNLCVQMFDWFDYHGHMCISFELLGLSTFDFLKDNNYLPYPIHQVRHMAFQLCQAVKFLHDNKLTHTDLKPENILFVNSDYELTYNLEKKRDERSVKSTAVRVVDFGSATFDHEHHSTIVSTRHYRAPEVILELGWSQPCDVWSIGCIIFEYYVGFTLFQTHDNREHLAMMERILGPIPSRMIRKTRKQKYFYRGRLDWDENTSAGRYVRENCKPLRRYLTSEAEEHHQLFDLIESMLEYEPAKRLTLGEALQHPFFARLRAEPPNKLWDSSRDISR

On to `COc1cc(-c2ccn(C)n2)nc2c(-c3ccncc3)csc12` [Preparative Example 165, 7-methoxy-5-(1-methyl-1H-pyrazol-3-yl)-3-(pyridin-4-yl)thieno[3,2-b]pyridine], for which the IC50 in experiment [1] is 500 to 3000 nM; in experiment [2], 3 to 10 µM; in experiment [3], 500 to 3000 nM; in experiment [4] it was 3 to 10 µM.

Values taken from patent EP4483954A1 (Masarykova Univerzita, priority 2023, dated 2025).
